From ChEMBL document CHEMBL5715260, “Selectivity Literature for EUbOPEN Chemogenomic Library” (2024)
Values belong to the compound of their own block, whether it stands above or below them.

Legend:
[1] = target: Bromodomain-containing protein 7 (Homo sapiens) (UniProt Q9NPI1); assay: Selectivity interaction (Bromodomain panel) EUB0000323b BRD7; design: recommended concentration 1 uM
[2] = target: Bromodomain-containing protein 3 (Homo sapiens) (UniProt Q15059); assay: (§1) Selectivity interaction (Bromodomain panel) EUB0000323b BRD3; design: recommended concentration 1 uM
[3] = target: Transcription initiation factor TFIID subunit 1-like (Homo sapiens) (UniProt Q8IZX4); assay: Selectivity interaction (Bromodomain panel) EUB0000323b TAF1L; design: recommended concentration 1 uM
[4] = target: Adenosine receptor A1 (Homo sapiens) (UniProt P30542); assay: Selectivity interaction (CEREP panel) EUB0000323b ADORA1; design: recommended concentration 1 uM; conditions: at 10 µM
[5] = target: Bromodomain-containing protein 3 (Homo sapiens) (UniProt Q15059); assay: as §1; design: recommended concentration 1 uM; remark: listed apart in the source
[6] = target: Bromodomain-containing protein 4 (Homo sapiens, UniProt O60885); assay: Selectivity interaction (Bromodomain panel) EUB0000323b BRD4; design: recommended concentration 1 uM
[7] = target: Transcription intermediary factor 1-alpha (Homo sapiens) (UniProt O15164); assay: (§2) Selectivity interaction (Bromodomain panel) EUB0000323b TRIM24; design: recommended concentration 1 uM
[8] = target: Transcription intermediary factor 1-alpha (Homo sapiens) (UniProt O15164); assay: as §2; design: recommended concentration 1 uM; remark: listed apart in the source
[9] = target: Nuclear receptor subfamily 4immunitygroup A member 1 (Homo sapiens) (UniProt P22736)
[10] = target: Nuclear receptor subfamily 2 group E member 1 (Homo sapiens) (UniProt Q9Y466)
[11] = target: T1, Alpha trans-inducing protein (Human alphaherpesvirus 1) (UniProt A0A5J6DW59); assay: Selectivity interaction (Reporter gene assay) EUB0000040b UL48; design: recommended concentration 1 uM
[12] = target: Mu-type opioid receptor (Homo sapiens, UniProt P35372); assay: Selectivity interaction (Custom Panel of enzymes and receptors (Eurofins)) EUB0000234b OPRM1; design: recommended concentration 1 uM; conditions: at 10 µM
[13] = target: Histamine H3 receptor (Homo sapiens) (UniProt Q9Y5N1); assay: Selectivity interaction (Custom Panel of enzymes and receptors (Eurofins)) EUB0000234b HRH3; design: recommended concentration 1 uM; conditions: at 10 µM
[14] = target: Alpha-2B adrenergic receptor (Homo sapiens) (UniProt P18089); assay: Selectivity interaction (Custom Panel of enzymes and receptors (Eurofins)) EUB0000234b ADRA2B; design: recommended concentration 1 uM; conditions: at 10 µM
[15] = target: Muscarinic acetylcholine receptor M2 (Homo sapiens) (UniProt P08172); assay: Selectivity interaction (Custom Panel of enzymes and receptors (Eurofins)) EUB0000234b CHRM2; design: recommended concentration 1 uM; conditions: at 10 µM
[16] = target: T1, Alpha trans-inducing protein (Human alphaherpesvirus 1); assay: Selectivity interaction (Reporter gene assay) EUB0000185b UL48; design: recommended concentration 1 uM
[17] = target: T2, Hepatocyte nuclear factor 4-alpha (Homo sapiens) (UniProt P41235); assay: Selectivity interaction (Reporter gene assay) EUB0000185b HNF4A; design: recommended concentration 1 uM
T2 sequence (whole entry): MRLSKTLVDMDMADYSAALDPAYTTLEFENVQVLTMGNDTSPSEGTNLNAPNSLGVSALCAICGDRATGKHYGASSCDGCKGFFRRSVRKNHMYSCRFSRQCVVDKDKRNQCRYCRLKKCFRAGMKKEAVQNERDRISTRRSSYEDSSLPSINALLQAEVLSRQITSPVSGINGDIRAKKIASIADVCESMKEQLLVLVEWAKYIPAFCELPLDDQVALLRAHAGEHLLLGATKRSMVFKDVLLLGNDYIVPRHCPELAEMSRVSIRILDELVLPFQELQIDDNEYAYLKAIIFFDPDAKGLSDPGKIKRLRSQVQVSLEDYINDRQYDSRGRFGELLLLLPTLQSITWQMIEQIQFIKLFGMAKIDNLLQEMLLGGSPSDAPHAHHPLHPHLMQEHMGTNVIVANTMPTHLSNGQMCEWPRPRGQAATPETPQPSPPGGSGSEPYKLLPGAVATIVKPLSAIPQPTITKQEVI

[18] = target: T3, Nuclear receptor subfamily 2 group C member 1 (Homo sapiens) (UniProt P13056); assay: Selectivity interaction (Reporter gene assay) EUB0000185b NR2C1; design: recommended concentration 1 uM
T3 sequence (whole entry): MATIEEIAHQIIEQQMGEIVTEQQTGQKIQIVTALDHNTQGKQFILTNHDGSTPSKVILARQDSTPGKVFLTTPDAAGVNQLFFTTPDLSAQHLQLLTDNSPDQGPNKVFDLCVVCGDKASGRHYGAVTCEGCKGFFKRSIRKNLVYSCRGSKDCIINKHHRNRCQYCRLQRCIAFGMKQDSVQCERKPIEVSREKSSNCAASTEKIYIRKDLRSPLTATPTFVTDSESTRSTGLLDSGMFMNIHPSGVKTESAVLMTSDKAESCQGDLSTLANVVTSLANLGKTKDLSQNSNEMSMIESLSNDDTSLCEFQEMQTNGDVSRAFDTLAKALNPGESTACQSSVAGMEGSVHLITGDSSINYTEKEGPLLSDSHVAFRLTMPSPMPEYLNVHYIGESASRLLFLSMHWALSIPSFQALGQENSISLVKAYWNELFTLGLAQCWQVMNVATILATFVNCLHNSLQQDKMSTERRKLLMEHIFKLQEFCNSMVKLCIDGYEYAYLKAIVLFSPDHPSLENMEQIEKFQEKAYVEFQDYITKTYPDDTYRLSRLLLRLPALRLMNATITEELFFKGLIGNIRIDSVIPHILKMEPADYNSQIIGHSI

[19] = target: Nuclear receptor subfamily 4immunitygroup A member 1 (Homo sapiens) (UniProt P22736); assay: Selectivity interaction (Reporter gene assay) EUB0000185b NR4A1; design: recommended concentration 1 uM
[20] = target: T4, Retinoic acid receptor RXR-alpha (Homo sapiens) (UniProt P19793); assay: Selectivity interaction (Reporter gene assay) EUB0000185b RXRA; design: recommended concentration 1 uM; conditions: reference bexarotene 1 uM, Selectivity number of off-targets 0.0, Selectivity number of targets 1.0, Source Knowledge inhouse
T4 sequence (whole entry): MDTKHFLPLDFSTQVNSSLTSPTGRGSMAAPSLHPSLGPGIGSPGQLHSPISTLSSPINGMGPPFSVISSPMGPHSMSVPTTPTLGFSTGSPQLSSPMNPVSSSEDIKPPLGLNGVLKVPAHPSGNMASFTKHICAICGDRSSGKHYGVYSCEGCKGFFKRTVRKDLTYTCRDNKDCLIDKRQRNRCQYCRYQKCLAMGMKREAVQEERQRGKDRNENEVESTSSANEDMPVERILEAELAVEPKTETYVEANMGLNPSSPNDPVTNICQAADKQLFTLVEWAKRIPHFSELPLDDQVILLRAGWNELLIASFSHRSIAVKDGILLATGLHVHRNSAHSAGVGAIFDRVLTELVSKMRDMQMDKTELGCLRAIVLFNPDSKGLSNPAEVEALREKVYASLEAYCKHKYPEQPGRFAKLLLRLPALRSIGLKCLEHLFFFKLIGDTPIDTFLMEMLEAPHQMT

[21] = target: Nuclear receptor subfamily 2 group E member 1 (Homo sapiens) (UniProt Q9Y466); assay: Selectivity interaction (Reporter gene assay) EUB0000185b NR2E1; design: recommended concentration 1 uM
[22] = target: Peroxisome proliferator-activated receptor delta (Homo sapiens) (UniProt Q03181); assay: Selectivity interaction (Reporter gene assay) EUB0000185b PPARD; design: recommended concentration 1 uM; conditions: screened at recom. conc., Selectivity number of off-targets 1.0, Selectivity number of targets 19.0, Source Knowledge inhouse
[23] = target: Steroidogenic factor 1 (Homo sapiens) (UniProt Q13285); assay: Selectivity interaction (Reporter gene assay) EUB0000185b NR5A1; design: recommended concentration 1 uM
[24] = target: Sodium-dependent noradrenaline transporter (Homo sapiens) (UniProt P23975); assay: Selectivity interaction (CEREP panel) EUB0000089c SLC6A2; design: recommended concentration 1 uM; conditions: at 10 µM
[25] = target: 5-hydroxytryptamine receptor 2B (Homo sapiens) (UniProt P41595); assay: Selectivity interaction (CEREP panel) EUB0000089c HTR2B; design: recommended concentration 1 uM; conditions: at 10 µM
[26] = target: Adenosine receptor A1 (Homo sapiens) (UniProt P30542); assay: Selectivity interaction (CEREP panel) EUB0000089c ADORA1; design: recommended concentration 1 uM; conditions: at 10 µM
[27] = target: Adenosine receptor A2a (Homo sapiens) (UniProt P29274); assay: Selectivity interaction (CEREP panel) EUB0000089c ADORA2A; design: recommended concentration 1 uM; conditions: at 10 µM
[28] = target: T1, Alpha trans-inducing protein (Human alphaherpesvirus 1); assay: Selectivity interaction (Reporter gene assay) EUB0000182b UL48; design: recommended concentration 1 uM
[29] = target: T3, Nuclear receptor subfamily 2 group C member 1 (Homo sapiens); assay: Selectivity interaction (Reporter gene assay) EUB0000182b NR2C1; design: recommended concentration 1 uM
[30] = target: Nuclear receptor subfamily 4immunitygroup A member 1 (Homo sapiens) (UniProt P22736); assay: Selectivity interaction (Reporter gene assay) EUB0000182b NR4A1; design: recommended concentration 1 uM
[31] = target: T4, Retinoic acid receptor RXR-alpha (Homo sapiens); assay: Selectivity interaction (Reporter gene assay) EUB0000182b RXRA; design: recommended concentration 1 uM; conditions: reference bexarotene 1 uM, Selectivity number of off-targets 0.0, Selectivity number of targets 1.0, Source Knowledge inhouse
[32] = target: Nuclear receptor subfamily 2 group E member 1 (Homo sapiens) (UniProt Q9Y466); assay: Selectivity interaction (Reporter gene assay) EUB0000182b NR2E1; design: recommended concentration 1 uM
[33] = target: T2, Hepatocyte nuclear factor 4-alpha (Homo sapiens); assay: Selectivity interaction (Reporter gene assay) EUB0000182b HNF4A; design: recommended concentration 1 uM
[34] = target: Steroidogenic factor 1 (Homo sapiens) (UniProt Q13285); assay: Selectivity interaction (Reporter gene assay) EUB0000182b NR5A1; design: recommended concentration 1 uM

Chain of Nuclear receptor subfamily 2 group E member 1 (Homo sapiens) (Q9Y466 whole entry): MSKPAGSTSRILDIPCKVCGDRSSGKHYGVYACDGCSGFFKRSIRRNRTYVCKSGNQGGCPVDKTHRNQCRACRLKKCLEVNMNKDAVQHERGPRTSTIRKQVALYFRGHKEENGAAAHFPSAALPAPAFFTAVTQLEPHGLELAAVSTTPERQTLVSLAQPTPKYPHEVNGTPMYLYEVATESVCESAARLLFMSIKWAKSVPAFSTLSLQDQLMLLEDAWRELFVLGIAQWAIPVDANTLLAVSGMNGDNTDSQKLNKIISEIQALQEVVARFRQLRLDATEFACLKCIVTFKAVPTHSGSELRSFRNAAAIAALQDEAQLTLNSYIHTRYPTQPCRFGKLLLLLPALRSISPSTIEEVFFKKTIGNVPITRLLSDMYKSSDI
Chain of Nuclear receptor subfamily 4immunitygroup A member 1 (Homo sapiens) (P22736 whole entry): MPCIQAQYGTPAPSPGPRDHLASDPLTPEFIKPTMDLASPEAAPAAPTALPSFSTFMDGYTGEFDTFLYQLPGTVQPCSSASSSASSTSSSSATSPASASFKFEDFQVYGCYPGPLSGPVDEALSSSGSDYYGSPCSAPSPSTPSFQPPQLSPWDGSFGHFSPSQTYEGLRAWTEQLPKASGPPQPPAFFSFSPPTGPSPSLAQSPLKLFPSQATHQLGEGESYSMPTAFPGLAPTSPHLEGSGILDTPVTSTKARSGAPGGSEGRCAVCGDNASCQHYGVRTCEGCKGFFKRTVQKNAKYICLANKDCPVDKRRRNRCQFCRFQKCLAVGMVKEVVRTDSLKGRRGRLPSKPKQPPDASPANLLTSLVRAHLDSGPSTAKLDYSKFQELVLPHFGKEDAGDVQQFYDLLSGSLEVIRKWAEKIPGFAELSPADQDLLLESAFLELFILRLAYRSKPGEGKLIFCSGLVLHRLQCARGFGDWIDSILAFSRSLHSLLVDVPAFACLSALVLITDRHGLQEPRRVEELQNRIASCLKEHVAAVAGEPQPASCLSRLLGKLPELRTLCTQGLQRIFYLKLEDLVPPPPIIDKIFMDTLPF
T1 sequence (A0A5J6DW59 as listed by the source): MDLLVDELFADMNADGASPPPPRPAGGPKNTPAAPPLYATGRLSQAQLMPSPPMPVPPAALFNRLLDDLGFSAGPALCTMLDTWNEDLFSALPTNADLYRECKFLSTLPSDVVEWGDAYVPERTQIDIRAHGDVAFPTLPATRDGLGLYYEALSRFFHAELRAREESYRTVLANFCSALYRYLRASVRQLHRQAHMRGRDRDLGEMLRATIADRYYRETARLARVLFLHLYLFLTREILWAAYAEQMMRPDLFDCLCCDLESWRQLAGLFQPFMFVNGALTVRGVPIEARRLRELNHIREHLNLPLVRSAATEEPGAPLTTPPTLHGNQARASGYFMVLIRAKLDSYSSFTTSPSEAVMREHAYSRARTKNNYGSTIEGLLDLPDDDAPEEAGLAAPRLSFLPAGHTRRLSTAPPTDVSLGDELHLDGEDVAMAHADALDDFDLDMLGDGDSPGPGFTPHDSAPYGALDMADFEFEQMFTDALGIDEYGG
Chain of Adenosine receptor A1 (Homo sapiens) (P30542 whole entry): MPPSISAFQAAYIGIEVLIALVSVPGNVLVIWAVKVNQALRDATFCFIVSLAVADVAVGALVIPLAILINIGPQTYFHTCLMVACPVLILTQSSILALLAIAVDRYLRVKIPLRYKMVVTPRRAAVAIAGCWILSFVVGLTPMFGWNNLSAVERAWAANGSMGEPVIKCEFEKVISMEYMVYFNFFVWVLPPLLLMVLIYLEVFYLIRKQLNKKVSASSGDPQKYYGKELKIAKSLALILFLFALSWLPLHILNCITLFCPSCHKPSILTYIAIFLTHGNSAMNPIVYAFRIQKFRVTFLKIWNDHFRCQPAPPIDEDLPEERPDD
Chain of Steroidogenic factor 1 (Homo sapiens) (Q13285 whole entry): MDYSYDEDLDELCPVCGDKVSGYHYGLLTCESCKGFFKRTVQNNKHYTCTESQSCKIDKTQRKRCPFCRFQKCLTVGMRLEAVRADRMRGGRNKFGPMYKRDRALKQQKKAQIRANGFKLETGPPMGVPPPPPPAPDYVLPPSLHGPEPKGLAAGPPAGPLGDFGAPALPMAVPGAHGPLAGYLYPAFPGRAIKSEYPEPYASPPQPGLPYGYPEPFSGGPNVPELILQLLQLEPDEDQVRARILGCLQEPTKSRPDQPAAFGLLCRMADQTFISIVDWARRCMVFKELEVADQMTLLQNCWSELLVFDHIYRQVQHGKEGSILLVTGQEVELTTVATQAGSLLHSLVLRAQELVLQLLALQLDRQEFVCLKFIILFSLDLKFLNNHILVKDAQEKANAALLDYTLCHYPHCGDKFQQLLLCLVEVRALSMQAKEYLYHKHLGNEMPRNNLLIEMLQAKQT
Chain of Bromodomain-containing protein 3 (Homo sapiens) (Q15059 2-726 limits assumed): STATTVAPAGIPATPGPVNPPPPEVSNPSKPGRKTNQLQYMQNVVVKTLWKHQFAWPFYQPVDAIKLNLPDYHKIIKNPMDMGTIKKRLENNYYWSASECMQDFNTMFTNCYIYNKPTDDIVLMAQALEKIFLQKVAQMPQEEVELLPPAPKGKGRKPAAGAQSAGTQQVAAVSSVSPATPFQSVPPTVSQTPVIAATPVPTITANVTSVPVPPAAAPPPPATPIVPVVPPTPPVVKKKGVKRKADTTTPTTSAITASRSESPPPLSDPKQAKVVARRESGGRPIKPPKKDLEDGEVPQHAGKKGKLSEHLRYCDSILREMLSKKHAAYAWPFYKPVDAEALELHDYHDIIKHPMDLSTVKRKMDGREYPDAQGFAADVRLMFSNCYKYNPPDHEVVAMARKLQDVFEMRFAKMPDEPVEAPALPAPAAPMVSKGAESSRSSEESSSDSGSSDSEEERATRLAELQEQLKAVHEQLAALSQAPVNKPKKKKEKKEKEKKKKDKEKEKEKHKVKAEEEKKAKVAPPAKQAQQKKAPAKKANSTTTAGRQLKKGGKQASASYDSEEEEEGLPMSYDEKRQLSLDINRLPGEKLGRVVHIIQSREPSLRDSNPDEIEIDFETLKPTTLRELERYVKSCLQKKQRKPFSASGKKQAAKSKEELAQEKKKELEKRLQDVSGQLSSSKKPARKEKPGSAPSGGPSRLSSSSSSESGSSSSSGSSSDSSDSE
Chain of Transcription intermediary factor 1-alpha (Homo sapiens) (O15164 whole entry): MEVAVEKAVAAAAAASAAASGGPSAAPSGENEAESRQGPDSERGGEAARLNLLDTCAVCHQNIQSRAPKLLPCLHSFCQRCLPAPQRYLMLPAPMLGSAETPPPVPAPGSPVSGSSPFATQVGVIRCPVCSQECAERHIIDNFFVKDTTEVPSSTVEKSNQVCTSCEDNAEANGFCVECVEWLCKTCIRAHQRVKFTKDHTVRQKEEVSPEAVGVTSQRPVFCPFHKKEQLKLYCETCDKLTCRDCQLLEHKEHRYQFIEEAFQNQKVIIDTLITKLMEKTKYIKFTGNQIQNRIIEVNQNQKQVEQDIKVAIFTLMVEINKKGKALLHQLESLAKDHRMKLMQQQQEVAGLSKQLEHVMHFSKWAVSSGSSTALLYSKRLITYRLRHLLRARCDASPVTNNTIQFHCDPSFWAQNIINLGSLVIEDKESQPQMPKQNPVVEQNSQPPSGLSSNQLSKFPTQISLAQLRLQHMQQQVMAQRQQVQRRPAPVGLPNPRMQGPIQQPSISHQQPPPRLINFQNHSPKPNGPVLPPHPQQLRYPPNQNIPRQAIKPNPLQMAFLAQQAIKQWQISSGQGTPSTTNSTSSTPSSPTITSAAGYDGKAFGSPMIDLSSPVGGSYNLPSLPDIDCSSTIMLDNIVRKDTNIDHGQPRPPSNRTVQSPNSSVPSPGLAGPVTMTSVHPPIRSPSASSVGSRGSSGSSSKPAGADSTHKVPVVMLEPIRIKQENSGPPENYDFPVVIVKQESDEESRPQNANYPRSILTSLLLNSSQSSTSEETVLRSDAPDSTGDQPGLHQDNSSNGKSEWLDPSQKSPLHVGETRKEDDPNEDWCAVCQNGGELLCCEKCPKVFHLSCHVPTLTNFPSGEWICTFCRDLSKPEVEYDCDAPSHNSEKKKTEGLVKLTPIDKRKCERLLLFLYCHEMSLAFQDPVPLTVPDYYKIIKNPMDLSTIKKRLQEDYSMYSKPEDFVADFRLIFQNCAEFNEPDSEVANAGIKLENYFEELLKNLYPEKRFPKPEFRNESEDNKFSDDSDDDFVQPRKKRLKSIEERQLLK
Chain of Adenosine receptor A2a (Homo sapiens) (P29274 whole entry): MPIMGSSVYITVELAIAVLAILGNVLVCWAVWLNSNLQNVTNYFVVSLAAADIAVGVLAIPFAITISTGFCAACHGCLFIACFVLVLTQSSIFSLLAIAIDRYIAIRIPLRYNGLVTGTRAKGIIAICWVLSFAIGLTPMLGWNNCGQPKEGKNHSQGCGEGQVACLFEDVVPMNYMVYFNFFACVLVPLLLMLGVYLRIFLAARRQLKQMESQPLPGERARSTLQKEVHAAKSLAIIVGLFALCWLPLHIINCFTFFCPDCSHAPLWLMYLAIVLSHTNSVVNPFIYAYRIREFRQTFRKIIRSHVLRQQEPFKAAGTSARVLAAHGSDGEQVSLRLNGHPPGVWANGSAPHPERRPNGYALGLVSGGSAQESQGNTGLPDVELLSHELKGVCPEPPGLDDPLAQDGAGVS
Chain of Alpha-2B adrenergic receptor (Homo sapiens) (P18089 whole entry): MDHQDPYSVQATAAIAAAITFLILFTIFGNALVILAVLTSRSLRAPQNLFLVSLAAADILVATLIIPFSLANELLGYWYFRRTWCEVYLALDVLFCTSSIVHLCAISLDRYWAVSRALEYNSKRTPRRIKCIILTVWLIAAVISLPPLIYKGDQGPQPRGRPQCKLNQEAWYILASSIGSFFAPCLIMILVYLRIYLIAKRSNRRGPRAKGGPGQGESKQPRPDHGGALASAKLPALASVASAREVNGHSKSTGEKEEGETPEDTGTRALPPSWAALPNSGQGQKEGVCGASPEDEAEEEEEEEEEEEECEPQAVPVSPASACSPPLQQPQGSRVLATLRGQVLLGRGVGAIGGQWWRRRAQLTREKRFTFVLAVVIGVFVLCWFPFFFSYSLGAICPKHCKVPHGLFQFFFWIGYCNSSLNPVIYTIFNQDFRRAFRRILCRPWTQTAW

SMILES: COc1cc(OC)cc(-c2noc(N3CCN(C)C4(CCN(c5ccnc(C)c5)CC4)C3)n2)c1
- Inhibition of control [12]: > 50%
- Inhibition of control [13]: > 50%
- Inhibition of control [14]: > 50%
- Inhibition of control [15]: > 50%

SMILES: CC(C)(Sc1ccc(CCN(CCCCC2CCCCC2)C(=O)NC2CCCCC2)cc1)C(=O)O
- P-value [16]: 2.26e-05
- Remaining activity [17]: 0.944
- Fold activation [18]: 1.49
- Fold activation [19]: 1.03
- Relative activation [20]: 0.845%
- Remaining activity [21]: 0.915
- Fold activation [22]: 19.1
- Remaining activity [23]: 0.897

SMILES: Nc1nc(NC2CC2)cc(-c2cccc(Cl)c2Cl)n1
- Inhibition of control [24]: 99%
- Inhibition of control [25]: 92%
- Inhibition of control [26]: 79%
- Inhibition of control [27]: 81%

More lines, now with the values ahead:

- ΔTm [1]: 1.2 °C
- ΔTm [2]: 1.4 °C
- ΔTm [3]: 1.4 °C
- Inhibition of control [4]: 82%
- ΔTm [5]: 1.6 °C
- ΔTm [6]: 2 °C
- ΔTm [7]: 1.6 °C
- ΔTm [8]: 1.8 °C
SMILES: COc1cc2c(cc1NS(=O)(=O)c1ccc(Br)cc1C)n(C)c(=O)n2C

- Remaining activity [9]: 0.903
- Remaining activity [10]: 0.742
- P-value [11]: 0.000575
SMILES: O=S(=O)(c1ccccc1)N(CC(F)(F)F)c1ccc(C(O)(C(F)(F)F)C(F)(F)F)cc1

- P-value [28]: 2.38e-08
- Fold activation [29]: 1.38
- Fold activation [30]: 1.14
- Relative activation [31]: 0.492%
- Fold activation [32]: 1.24
- Fold activation [33]: 1.05
- Fold activation [34]: 1.09
SMILES: COC(=O)/C=C/c1cccc(N(Cc2ccc(-c3ccc(N(C)C)cc3)cc2)C(=O)C2CCCCC2)c1
